Assay results as given in patent US20130345214A1, “Lipoxygenase Inhibitors” (SRI International, Inc., priority 2011, published 2013).
Like-named read-outs stand apart in the source and are kept apart here.

Key:
[1] = tested on: amyloid-beta (Abeta) formation; assay: secreted Abeta40/Abeta42 ELISA in N2A-APPswe cells; type: cell-based; conditions: Mus musculus, 24 hours treatment
Experimental: A neuronal cell-based screening assay capable of sensitive and selective detection of secreted Aβ40 and Aβ42 was established. Mouse neuro-2A neuroblastoma (N2A) cells were co-transfected with pSV2neo selection plasmid and a human APP gene carrying the K670N/M671L Swedish mutations (APPswe) that are known to cause early-onset AD. The transfected cells were selected in G418-containing medium, and single colonies were analyzed for the expression of APPswe. The resulting stable cell line, N2A-APPswe, provides a platform for screening inhibitors that alter Aβ formation from the human APPswe gene. Levels of secreted Aβ40 and Aβ42 in the medium can be quantified by ELISA kits. Table 4 provides results for exemplary subject bisindole compounds on amyloid-beta (Abeta) formation at 5 μM after 24 hours treatment in N2A-APPswe cells.

15-LOX-2 = molecular target: T1, 15-LOX-2 (Homo sapiens, UniProt O15296); assay: in vitro 15-LOX-2 inhibition (Table 3); type: biochemical
T1 sequence (O15296 1-676): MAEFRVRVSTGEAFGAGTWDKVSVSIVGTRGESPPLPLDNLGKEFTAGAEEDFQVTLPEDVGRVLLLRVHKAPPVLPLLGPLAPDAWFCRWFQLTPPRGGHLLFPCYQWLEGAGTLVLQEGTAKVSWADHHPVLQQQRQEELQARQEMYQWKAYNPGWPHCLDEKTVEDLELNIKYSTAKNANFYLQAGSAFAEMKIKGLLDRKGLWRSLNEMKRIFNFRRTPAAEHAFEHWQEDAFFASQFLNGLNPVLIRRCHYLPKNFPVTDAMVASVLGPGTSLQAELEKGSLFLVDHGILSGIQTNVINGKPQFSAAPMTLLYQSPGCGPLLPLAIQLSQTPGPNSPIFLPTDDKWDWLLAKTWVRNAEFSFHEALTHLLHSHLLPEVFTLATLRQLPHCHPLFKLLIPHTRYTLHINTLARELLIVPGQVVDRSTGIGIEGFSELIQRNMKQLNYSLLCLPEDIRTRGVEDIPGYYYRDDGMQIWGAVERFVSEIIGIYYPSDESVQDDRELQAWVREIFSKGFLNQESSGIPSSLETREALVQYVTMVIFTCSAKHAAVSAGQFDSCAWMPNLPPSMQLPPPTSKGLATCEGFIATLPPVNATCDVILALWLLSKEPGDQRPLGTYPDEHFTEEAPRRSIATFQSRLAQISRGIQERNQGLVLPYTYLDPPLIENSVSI
Description: (§1) Table 3 provides results for exemplary subject bisindole compounds on 5-LOX, 12-LOX and 15-LOX.

human 12-LOX = molecular target: T2, human 12-LOX (Homo sapiens, UniProt P18054); assay: colorimetric platelet 12-LOX activity assay (ferric oxidation of xylenol orange, human blood platelets); type: cell-based
T2 construct: ferric oxidation of xylenol orange from arachidonic acid in human blood platelets; endogenous in cells; host or cells: human blood platelets
T2 sequence (P18054 1-663): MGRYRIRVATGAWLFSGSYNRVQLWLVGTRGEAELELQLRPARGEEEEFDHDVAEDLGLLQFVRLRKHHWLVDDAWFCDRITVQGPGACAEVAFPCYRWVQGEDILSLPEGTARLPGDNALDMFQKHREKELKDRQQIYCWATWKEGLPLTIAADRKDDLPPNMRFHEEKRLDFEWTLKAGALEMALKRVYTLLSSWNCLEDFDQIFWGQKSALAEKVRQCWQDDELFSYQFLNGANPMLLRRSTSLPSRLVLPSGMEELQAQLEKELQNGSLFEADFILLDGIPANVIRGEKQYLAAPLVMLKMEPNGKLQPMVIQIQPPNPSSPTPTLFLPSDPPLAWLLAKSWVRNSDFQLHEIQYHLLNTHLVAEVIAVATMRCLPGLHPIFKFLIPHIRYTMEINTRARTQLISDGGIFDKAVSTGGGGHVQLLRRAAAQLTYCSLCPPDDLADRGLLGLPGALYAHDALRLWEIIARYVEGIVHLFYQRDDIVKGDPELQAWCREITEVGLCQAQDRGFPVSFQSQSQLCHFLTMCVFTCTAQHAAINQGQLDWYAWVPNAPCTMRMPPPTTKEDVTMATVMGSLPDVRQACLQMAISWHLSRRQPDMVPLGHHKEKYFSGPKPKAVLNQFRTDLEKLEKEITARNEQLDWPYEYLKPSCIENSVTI
Description: as §1

5-LOX = molecular target: T3, 5-LOX (Homo sapiens, UniProt P09917); assay: fluorescence-based enzyme assay of human 5-LOX (Table 3); type: biochemical
T3 sequence (P09917 1-674): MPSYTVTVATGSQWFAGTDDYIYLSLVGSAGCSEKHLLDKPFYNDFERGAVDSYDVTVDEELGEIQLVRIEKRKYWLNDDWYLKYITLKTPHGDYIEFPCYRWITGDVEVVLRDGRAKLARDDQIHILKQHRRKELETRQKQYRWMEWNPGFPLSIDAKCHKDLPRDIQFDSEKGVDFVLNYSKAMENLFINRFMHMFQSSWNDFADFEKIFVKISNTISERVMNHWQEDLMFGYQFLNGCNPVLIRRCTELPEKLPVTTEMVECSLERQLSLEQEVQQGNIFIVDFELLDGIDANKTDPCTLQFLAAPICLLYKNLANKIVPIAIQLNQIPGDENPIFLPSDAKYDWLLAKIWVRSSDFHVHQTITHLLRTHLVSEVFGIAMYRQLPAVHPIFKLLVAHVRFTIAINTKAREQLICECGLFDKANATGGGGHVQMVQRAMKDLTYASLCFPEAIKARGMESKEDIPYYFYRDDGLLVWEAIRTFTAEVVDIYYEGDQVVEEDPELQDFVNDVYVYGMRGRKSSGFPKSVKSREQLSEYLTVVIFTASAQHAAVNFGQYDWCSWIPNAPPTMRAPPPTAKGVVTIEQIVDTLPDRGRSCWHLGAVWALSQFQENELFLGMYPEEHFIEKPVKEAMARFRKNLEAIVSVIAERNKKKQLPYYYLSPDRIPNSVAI
Description: as §1

[2] = read-out: Abeta 40 formation (% of control)
[3] = read-out: Abeta 42 formation (% of control)

Row | Structure (SMILES) | activity at 5 µM [1, 2] [%] | activity at 5 µM [1, 3] [%] | further results
1 | Fc1ccc2[nH]c3c(OCC4CCCN4)c4[nH]c5ccc(F)cc5c4c(Cl)c3c2c1 (centres unmarked) | 86 | 62 | 
2 | Fc1ccc2[nH]c3c(OCCN4CCCCC4)c4[nH]c5ccc(F)cc5c4cc3c2c1 | 82 | 19 | 
3 | Fc1ccc2[nH]c3c(OC[C@H]4CCCN4)c4[nH]c5ccc(F)cc5c4c(Cl)c3c2c1 |  |  | inhibition at 3 µM (15-LOX-2): 45%; inhibition at 3 µM (human 12-LOX; 3 μM): 80%; inhibition at 3 µM (5-LOX; 3 μM): 91%
4 | N=C(N)NCCCOc1c2[nH]c3ccc(F)cc3c2cc2c1[nH]c1ccc(F)cc12 [drawing 28] | 82 | 58 | 
5 | CN(C)CCOc1c2[nH]c3ccc(F)cc3c2c(Cl)c2c1[nH]c1ccc(F)cc12 [drawing 33] | 68 | 55 | 
6 | Fc1ccc2[nH]c3c(OC[C@@H]4C[C@H](F)CN4)c4[nH]c5ccc(F)cc5c4cc3c2c1 [drawing 34] | 93 | 67 | 
7 | N=C(N)NCCCOc1c2[nH]c3ccc(Cl)cc3c2cc2c1[nH]c1ccc(Cl)cc12 | 77 | 8 | 
8 | Fc1ccc2[nH]c3c(OCCn4cncn4)c4[nH]c5ccc(F)cc5c4cc3c2c1 | 53 | 30 | 
9 | Clc1ccc2[nH]c3c(OCCCn4cncn4)c4[nH]c5ccc(Cl)cc5c4cc3c2c1 [drawing 25] | 66 | 54 | 
10 | Fc1ccc2[nH]c3c(OCC4CCCO4)c4[nH]c5ccc(F)cc5c4cc3c2c1 (centres unmarked) | 74 | 42 | 
11 | Cc1nnnn1CCOc1c2[nH]c3ccc(F)cc3c2cc2c1[nH]c1ccc(F)cc12 | 66 | 36 | 
12 | CCOC(=O)c1ccc2[nH]c3c(O[C@H]4CCNC4)c4[nH]c5ccc(C(=O)OCC)cc5c4cc3c2c1 [drawing 20] |  |  | inhibition at 3 µM (15-LOX-2): 10%; inhibition at 3 µM (human 12-LOX; 3 μM): 75%; inhibition at 3 µM (5-LOX; 3 μM): 37%
13 | Nc1nnn(CCOc2c3[nH]c4ccc(Cl)cc4c3cc3c2[nH]c2ccc(Cl)cc23)n1 [drawing 26] | 86 | 75 | 
14 | COc1c2[nH]c3ccc(F)cc3c2c(N2CCOCC2)c2c1[nH]c1ccc(F)cc12 | 77 | 43 | 
15 | Cc1c2[nH]c3ccccc3c2cc2c1[nH]c1ccccc12 |  |  | inhibition at 3 µM (15-LOX-2): 16%; inhibition at 3 µM (human 12-LOX; 3 μM): 76%; inhibition at 3 µM (5-LOX; 3 μM): 52%
16 | Fc1ccc2[nH]c3c(C(F)(F)F)c4[nH]c5ccc(F)cc5c4cc3c2c1 | 81 | 47 | 
17 | Fc1ccc2[nH]c3c(OCC4CCCN4)c4[nH]c5ccc(F)cc5c4c(C(F)(F)F)c3c2c1 (centres unmarked) [drawing 17] |  |  | inhibition at 3 µM (15-LOX-2): 17%; inhibition at 3 µM (human 12-LOX; 3 μM): 77%; inhibition at 3 µM (5-LOX; 3 μM): 77%
18 | Fc1ccc2[nH]c3c(OC[C@@H]4CCCN4)c4[nH]c5ccc(F)cc5c4cc3c2c1 |  |  | inhibition at 3 µM (15-LOX-2): 55%; inhibition at 3 µM (human 12-LOX; 3 μM): 88%; inhibition at 3 µM (5-LOX; 3 μM): 92%
19 | Clc1ccc2[nH]c3c(OCC4CCCN4)c4[nH]c5ccc(Cl)cc5c4cc3c2c1 (centres unmarked) [drawing 30] | 69 | 59 | 

Row | Structure (SMILES) | activity at 5 µM [1, 2] [%] | activity at 5 µM [1, 3] [%] | further results
20 | Cl.Fc1ccc2[nH]c3c(OCC4CCCN4)c4[nH]c5ccc(F)cc5c4cc3c2c1 (centres unmarked) |  |  | 15-LOX-2 % Inhibition at 3 μM (15-LOX-2; 3 µM): 63%; 12-LOX % Inhibition at 3 μM (human 12-LOX; 3 μM): 77%; 5-LOX % Inhibition at 3 μM (5-LOX; 3 μM): 95%
21 | Cc1nnn(CCOc2c3[nH]c4ccc(F)cc4c3cc3c2[nH]c2ccc(F)cc23)n1 | 66 | 36 | 
22 | Clc1ccc2[nH]c3c(OCCCn4cncn4)c4[nH]c5ccc(Cl)cc5c4cc3c2c1 [drawing 8] |  |  | inhibition at 3 µM (15-LOX-2): 25%; inhibition at 3 µM (human 12-LOX; 3 μM): 89%; inhibition at 3 µM (5-LOX; 3 μM): 85%
23 | Fc1ccc2[nH]c3c(OC[C@@H]4C[C@H](F)CN4)c4[nH]c5ccc(F)cc5c4cc3c2c1 [drawing 19] |  |  | inhibition at 3 µM (15-LOX-2): 41%; inhibition at 3 µM (human 12-LOX; 3 μM): 87%; inhibition at 3 µM (5-LOX; 3 μM): 87%
24 | Clc1ccc2[nH]c3c(OCC4CCCN4)c4[nH]c5ccc(Cl)cc5c4cc3c2c1 (centres unmarked) [drawing 13] |  |  | inhibition at 3 µM (15-LOX-2): 43%; inhibition at 3 µM (human 12-LOX; 3 μM): 79%; inhibition at 3 µM (5-LOX; 3 μM): 79%
25 | c1ccc2c(c1)[nH]c1c(OCCCN3CCOCC3)c3[nH]c4ccccc4c3cc12 | 95 | 25 | 
26 | Fc1ccc2[nH]c3c(OC4CCNC4)c4[nH]c5ccc(F)cc5c4cc3c2c1 (centres unmarked) [drawing 29] | 71 | 9 | 
27 | CCN(CC)CCOC(=O)c1ccc2[nH]c3c(OC)c4[nH]c5ccc(C(=O)OCCN(CC)CC)cc5c4cc3c2c1 |  |  | inhibition at 10 µM (human 12-LOX; 10 μM (footnote *)): 12%; inhibition at 10 µM (5-LOX; 10 μM (footnote *)): 80%
28 | CN(C)CCOc1c2[nH]c3ccc(F)cc3c2cc2c1[nH]c1ccc(F)cc12 [drawing 24] | 79 | 76 | 
29 | Fc1ccc2[nH]c3c(OCC4CCCN4)c4[nH]c5ccc(F)cc5c4c(C(F)(F)F)c3c2c1 (centres unmarked) [drawing 32] | 89 | 69 | 
30 | Nc1nnnn1CCOc1c2[nH]c3ccc(Cl)cc3c2cc2c1[nH]c1ccc(Cl)cc12 [drawing 10] |  |  | inhibition at 3 µM (15-LOX-2): 24%; inhibition at 3 µM (human 12-LOX; 3 μM): 73%; inhibition at 3 µM (5-LOX; 3 μM): 85%
31 | Fc1ccc2[nH]c3c(OCC4CCCN4)c4[nH]c5ccc(F)cc5c4cc3c2c1 (centres unmarked) [drawing 36] | 65 | 52 | 
32 | F[C@@H]1CN[C@H](COc2c3[nH]c4ccc(Cl)cc4c3cc3c2[nH]c2ccc(Cl)cc23)C1 | 59 | 3 | 
33 | Fc1ccc2[nH]c3c(OC4CCNC4)c4[nH]c5ccc(F)cc5c4cc3c2c1 (centres unmarked) [drawing 12] |  |  | inhibition at 3 µM (15-LOX-2): 51%; inhibition at 3 µM (human 12-LOX; 3 μM): 80%; inhibition at 3 µM (5-LOX; 3 μM): 86%
34 | CCOC(=O)c1ccc2[nH]c3c(O[C@H]4CCNC4)c4[nH]c5ccc(C(=O)OCC)cc5c4cc3c2c1 [drawing 35] | 70 | 48 | 
35 | Fc1ccc2[nH]c3c(OCC4CCCN4)c4[nH]c5ccc(F)cc5c4cc3c2c1 (centres unmarked) [drawing 14] |  |  | inhibition at 3 µM (15-LOX-2): 61%; inhibition at 3 µM (human 12-LOX; 3 μM): 78%; inhibition at 3 µM (5-LOX; 3 μM): 94%
36 | Nc1nnnn1CCOc1c2[nH]c3ccc(Cl)cc3c2cc2c1[nH]c1ccc(Cl)cc12 [drawing 27] | 81 | 71 | 
37 | Fc1ccc2[nH]c3c(OCCN4CC[C@H](F)C4)c4[nH]c5ccc(F)cc5c4cc3c2c1 | 75 | 35 | 
